Entries after “also recorded” stand apart in the source; their conditions may differ.
Test system: lung cancer
Experiment: CT / X-ray images of cancer tissue in treated lung cancer patients (case reports)
Format: in vivo, human

## nivolumab
Example 3 patient, nivolumab after administration of Extract Z, FIG. 5
  cancer tissue in CT images after the treatment: almost eliminated
Example 23 patient, nivolumab alone 240 mg every 2 weeks from September, 2017, progression observed on Nov. 6, 2020
  primary foci and lymph node metastasis: primary foci were almost eliminated and metastasis to the lymph nodes was eliminated
Nivolumab 240 mg every 2 weeks continued after radiation of 30 Gy/10 fr to the cervical lymph node, stage IVb lung cancer patient
  swelling in the cervical lymph node (CT images): suppressed (April and October, 2019) and partially remitted; also recorded: suppressed (May, 2019) and partially remitted
Nivolumab alone, 240 mg per dose i.v. drip at an interval of 2 weeks, stage IVb lung cancer patient without driver gene mutation
  swelling in the cervical lymph node to which cancer had been metastasized (CT images): progressed
